Consider 24 compounds from patent US10543212B2, “Substituted amines for treating cardiac diseases” (Cardurion Pharmaceuticals, LLC, priority 2017, dated 2020).

Counter-ions that a name gives are not always drawn.

The target of one experiment is T1, Human full-length CaMKIIδ (Homo sapiens, UniProt Q13557).
T1 construct: Human full-length CaMKIIδ (Cat #02-111) was obtained from Carna Biosciences; GST; purchased Carna Biosciences 02-111
The experiment can be described thus: Human CaMKII enzyme inhibition assay (radiometric kinase assay). Type of experiment: biochemical. The following applies: 3 μM compound; 500 nM ATP; 0.5 nM CaMKIIδ. On the procedure:
In Vitro CaMKIIδ Inhibitory Activity was Evaluated by an Enzyme Assay.
Human CaMKII Enzyme Inhibition Assay
Kinase assay for CaMKIIs was performed using the radiometric assay. Human full-length CaMKIIδ (Cat #02-111) was obtained from Carna Biosciences (Kobe, Japan).
Enzyme reactions were performed in 25 mM HEPES, pH 7.5, with 5 mM magnesium chloride, 1 mM calcium chloride, 10 μg/mL Calmodulin, 2 mM DTT, 0.01% Tween20 and 500 nM ATP (0.2 μCi/well of [γ-33P] ATP) containing 0.5 nM CaMKIIδ and 0.1 μM autophosphorylation peptide (KKALRRQETVDAL)(Toray Research Center).
After incubating the enzyme, peptide, and compounds for 5 min, kinase reactions were initiated by adding ATP, followed by incubation for 60 min at room temperature in a total volume of 50 μL. The reactions were terminated by the addition of 10% trichloroacetic acid (final concentration). The [γ-33P]-phosphorylated proteins were filtered in a Harvest Plate (Merck Millipore) with a Cell Harvester (PerkinElmer) and then free [γ-33P] ATP was washed out with 3% phosphoric acid. The plates were dried, followed by the addition of 40 μl of MicroScintO (PerkinElmer). The radioactivity was counted by a TopCount scintillation counter (PerkinElmer). The signals of the reaction without enzyme were defined as 100% inhibitory activity and those of the reaction without inhibitors as 0% inhibitory activity. In vitro CaMKIIδ inhibitory activity was evaluated by % inhibitory activity of 3 μM compound concentration.
Regarding `COc1cc(N2CCC(N3CCOCC3)CC2)ccc1Nc1ncc(-c2ccc(C#N)c(O[C@@H](C)Cn3cnnn3)c2)cn1` [Example 9, 4-(2-((2-methoxy-4-(4-(morpholin-4-yl)piperidin-1-yl)phenyl)amino)pyrimidin-5-yl)-2-(((2S)-1-(1H-tetrazol-1-yl)propan-2-yl)oxy)benzonitrile], the “CaMKIIδ inhibitory activity (%) at 3 μM” value is recorded as 99%.

Staying with this experiment, now noted: 3 μM compound; 500 nM ATP; 0.5 nM CaMKIIδ; hydrochloride.
For the compound `COc1cc(N2CCC(N3CCOCC3)CC2)ccc1Nc1ncc(-c2ccc(C#N)c(O[C@@H](C)Cn3cncn3)c2)cn1` [Example 8, 4-(2-((2-methoxy-4-(4-(morpholin-4-yl)piperidin-1-yl)phenyl)amino)pyrimidin-5-yl)-2-(((2S)-1-(1H-1,2,4-triazol-1-yl)propan-2-yl)oxy)benzonitrile hydrochloride], the “CaMKIIδ inhibitory activity (%) at 3 μM” value came to 98%.

The same experiment, now with this note: 3 μM compound; 500 nM ATP; 0.5 nM CaMKIIδ; read-out: CaMKIIδ inhibitory activity (%) at 3 μM.
As to `COc1cc(N2CCC(N3CCNCC3)CC2)ccc1Nc1ncc(-c2ccc(C#N)c(O[C@@H](C)Cn3cnnn3)c2)cn1` [Example 34], the inhibition at 3 µM came out at 99%.
On the same count and under the same terms, the value for `COc1cc(C(=O)NC2CCOCC2)ccc1Nc1ncc(-c2ccc(C#N)c(O[C@@H](C)Cn3cnnn3)c2)cn1` [Example 87, 4-((5-(4-cyano-3-(((2S)-1-(1H-tetrazol-1-yl)propan-2-yl)oxy)phenyl)pyrimidin-2-yl)amino)-3-methoxy-N-(tetrahydro-2H-pyran-4-yl)benzamide] was 98%; that for `COc1cc(N2CCC(N3CCOCC3)CC2)ccc1Nc1ncc(-c2ccc(C#N)c(O[C@@H](C)Cn3cnnn3)c2)cn1` [Example 10, 4-(2-((2-methoxy-4-(4-(morpholin-4-yl)piperidin-1-yl)phenyl)amino)pyrimidin-5-yl)-2-(((2S)-1-(1H-tetrazol-1-yl)propan-2-yl)oxy)benzonitrile hydrochloride] was 98%.
The same measure, in the same setting: the value for `C[C@@H](Cn1cncn1)Oc1cc(-c2cnc(Nc3cn(C)nc3C(F)(F)F)nc2)ccc1C#N` [Example 376, 4-(2-((1-methyl-3-(trifluoromethyl)-1H-pyrazol-4-yl)amino)pyrimidin-5-yl)-2-(((2S)-1-(1H-1,2,4-triazol-1-yl)propan-2-yl)oxy)benzonitrile] was 97%; that for `COc1cc(C(=O)N2CC3(CN(C)C3)C2)ccc1Nc1ncc(-c2ccc(C#N)c(O[C@@H](C)Cn3cncn3)c2)cn1` [Example 147, 4-(2-((2-methoxy-4-((6-methyl-2,6-diazaspiro[3.3]hept-2-yl)carbonyl)phenyl)ami-no)pyrimidin-5-yl)-2-(((2S)-1-(1H-1,2,4-triazol-1-yl)propan-2-yl)oxy)benzonitrile] was 95%.
Same read-out and setting: as for `C[C@@H](Cn1cncn1)Oc1cc(-c2cnc(Nc3cn[nH]c3)nc2)ccc1C#N` [Example 379, 4-(2-(1H-pyrazol-4-ylamino)pyrimidin-5-yl)-2-(((2S)-1-(1H-1,2,4-triazol-1-yl)propan-2-yl)oxy)benzonitrile], the figure is 98%; as for `C[C@@H](Cc1ccn[nH]1)Oc1cc(-c2cnc(Nc3cnn(C)c3)nc2)ccc1C#N` [Example 412, 4-(2-((1-methyl-1H-pyrazol-4-yl)amino)pyrimidin-5-yl)-2-(((2S)-1-(1H-pyrazol-5-yl)propan-2-yl)oxy)benzonitrile], 96%; as for `COc1ccccc1Nc1ncc(-c2ccc(C#N)c(O[C@@H](C)Cn3cnnn3)c2)cn1` [Example 16, 4-(2-((2-methoxy-phenyl)amino)pyrimidin-5-yl)-2-(((2S)-1-(1H-tetrazol-1-yl)propan-2-yl)oxy)benzonitrile], 99%.
As for `COc1cc(N2CCC(N3CCOCC3)CC2)ccc1Nc1ncc(-c2ccc(C#N)c(O[C@@H](C)Cn3cnnc3)c2)cn1` [Example 17, 4-(2-((2-methoxy-4-(4-(morpholin-4-yl)piperidin-1-yl)phenyl)amino)pyrimidin-5-yl)-2-(((2S)-1-(4H-1,2,4-triazol-4-yl)propan-2-yl)oxy)benzonitrile], the inhibition at 3 µM amounted to 98%.
On to `COc1cc(N2CCC(N3CCOCC3)CC2)ccc1Nc1ncc(-c2ccc(Cl)c(O[C@@H](C)Cn3cnnn3)c2)cn1` [Example 60, 5-(4-chloro-3-(((2S)-1-(1H-tetrazol-1-yl)propan-2-yl)oxy)phenyl)-N-(2-methoxy-4-(4-(morpholin-4-yl)piperidin-1-yl)phenyl)pyrimidin-2-amine], for which the inhibition at 3 µM stood at 99%.
As to `COc1ccc(N2CCC(N3CCOCC3)CC2)cc1Nc1ncc(-c2ccc(C#N)c(O[C@@H](C)Cn3cnnn3)c2)cn1` [Example 202, 4-(2-((2-methoxy-5-(4-(morpholin-4-yl)piperidin-1-yl)phenyl)amino)pyrimidin-5-yl)-2-(((2S)-1-(1H-tetrazol-1-yl)propan-2-yl)oxy)benzonitrile], the inhibition at 3 µM was found to be 99%.
On the same count and under the same terms, as for `COc1cc(C2CCN(C3COC3)CC2)ccc1Nc1ncc(-c2ccc(C#N)c(O[C@@H](C)Cn3cnnn3)c2)cn1` [Example 75, 4-(2-((2-methoxy-4-(1-(oxetan-3-yl)piperidin-4-yl)phenyl)amino)pyrimidin-5-yl)-2-(((2S)-1-(1H-tetrazol-1-yl)propan-2-yl)oxy)benzonitrile], the figure is 98%.
The same measure, in the same setting: as for `CC(C)n1cc(Nc2ncc(-c3ccc(C#N)c(O[C@@H](C)Cn4ncnn4)c3)cn2)cn1` [Example 371, 4-(2-((1-isopropyl-1H-pyrazol-4-yl)amino)pyrimidin-5-yl)-2-(((2S)-1-(2H-tetrazol-2-yl)propan-2-yl)oxy)benzonitrile], the figure is 94%; as for `Cc1nn(C(C)C)cc1Nc1ncc(-c2ccc(C#N)c(O[C@@H](C)Cn3cncn3)c2)cn1` [Example 358, 4-(2-((1-isopropyl-3-methyl-1H-pyrazol-4-yl)amino)pyrimidin-5-yl)-2-(((2S)-1-(1H-1,2,4-triazol-1-yl)propan-2-yl)oxy)benzonitrile], 93%; as for `COc1nc(N2CCC(N3CCOCC3)CC2)ccc1Nc1ncc(-c2ccc(Cl)c(O[C@@H](C)Cn3cnnn3)c2)cn1` [Example 212, 5-(4-chloro-3-(((2S)-1-(1H-tetrazol-1-yl)propan-2-yl)oxy)phenyl)-N-(2-methoxy-6-(4-(morpholin-4-yl)piperidin-1-yl)pyridin-3-yl)pyrimidin-2-amine], 99%.
For the compound `COc1cc(N2CCN(C3COC3)CC2)ccc1Nc1ncc(-c2ccc(C#N)c(O[C@@H](C)Cn3cnnn3)c2)cn1` [Example 192, 4-(2-((2-methoxy-4-(4-(oxetan-3-yl)piperazin-1-yl)phenyl)ami-no)pyrimidin-5-yl)-2-(((2S)-1-(1H-tetrazol-1-yl)propan-2-yl)oxy)benzonitrile], the inhibition at 3 µM amounted to 99%.
`C[C@@H](Cn1cnnn1)Oc1cc(-c2cnc(Nc3cn(C)nc3C(F)(F)F)nc2)ccc1C#N` [Example 380, 4-(2-((1-methyl-3-(trifluoromethyl)-1H-pyrazol-4-yl)amino)pyrimidin-5-yl)-2-(((2S)-1-(1H-tetrazol-1-yl)propan-2-yl)oxy)benzonitrile]: the inhibition at 3 µM is 99%.
As for `COc1cc(N2CCC(N3CCCCC3)CC2)ccc1Nc1ncc(-c2ccc(C#N)c(O[C@@H](C)Cn3cnnn3)c2)cn1` [Example 45, 4-(2-((4-(1,4′-bipiperidine-1′-yl)-2-methoxyphenyl)amino)pyrimidin-5-yl)-2-(((2S)-1-(1H-tetrazol-1-yl)propan-2-yl)oxy)benzonitrile], the inhibition at 3 µM was found to be 99%.
The same measure, in the same setting: the value for `COc1cc(N2CCN(C3COC3)CC2)ccc1Nc1ncc(-c2ccc(Cl)c(O[C@@H](C)Cn3cnnn3)c2)cn1` [Example 197, 5-(4-chloro-3-(((2S)-1-(1H-tetrazol-1-yl)propan-2-yl)oxy)phenyl)-N-(2-methoxy-4-(4-(oxetan-3-yl)piperazin-1-yl)phenyl)pyrimidin-2-amine] was 97%; that for `COc1nc(N2CCC(N3CCOCC3)CC2)ncc1Nc1ncc(-c2ccc(C#N)c(O[C@@H](C)Cn3cnnn3)c2)cn1` [Example 56, 4-(2-((4-methoxy-2-(4-(morpholin-4-yl)piperidin-1-yl)pyrimidin-5-yl)amino)pyrimidin-5-yl)-2-(((2S)-1-(1H-tetrazol-1-yl)propan-2-yl)oxy)benzonitrile] was 98%.
On to `COc1cc(C(=O)N2CCOCC2)ccc1Nc1ncc(-c2ccc(C#N)c(O[C@@H](C)Cn3cncn3)c2)cn1` [Example 72, 4-(2-((2-methoxy-4-(morpholin-4-ylcar-bonyl)phenyl)amino)pyrimidin-5-yl)-2-(((2S)-1-(1H-1,2,4-triazol-1-yl)propan-2-yl)oxy)benzonitrile], for which the inhibition at 3 µM worked out at 97%.
Still for that read-out and setting: as for `COc1cc(C2CCN(CCO)CC2)ccc1Nc1ncc(-c2ccc(C#N)c(O[C@@H](C)Cn3cnnn3)c2)cn1` [Example 160, 4-(2-((4-(1-(2-hydroxyethyl)piperidin-4-yl)-2-methoxy-phenyl)amino)pyrimidin-5-yl)-2-(((2S)-1-(1H-tetrazol-1-yl)propan-2-yl)oxy)benzonitrile], the figure is 99%.
